Values of other authors in patent US20060046268A1, “Diagnosis of anemia and optimizing treatment for heart repair” (Australian Stem Cell Centre Ltd., priority 2004, published 2006).

Test system: renal transplant patients
Conditions: reversed upon ceasing administration of the drug, Vlahakos et al., Am J Kidney Dis 17:199-205

anemia (impact on function of the hematopoietic system): reversible anemia
SMILES: CCOC(=O)[C@H](CCc1ccccc1)N[C@@H](C)C(=O)N1CCC[C@H]1C(=O)O [Enalapril]
